In patent US20110117081A1, “FUNCTIONALIZED PYRROLIDINES AND USE THEREOF AS IAP INHIBITORS” (priority 2008, published 2011):
pEC50: −log10 of the molar value.

Columns and labels:
[1] = system: Colorectal carcinoma HCT116 cells; test: HCT116 + ETR1 cell viability assay (MTT); type: cell-based; conditions: with ETR1 (40 ng/ml), 72 hrs
Description: Colorectal carcinoma HCT116 cells (ATCC# CCL-247) were cultured as monolayers in 96 well plates at a density of 2000 cells per well in 100 ul of McCoy's 5a medium (HyClone) supplemented with 2.2 g/L sodium bicarbonate (Gibco), 10% FBS (HyClone) and 1% penecillin/streptomycin (HyClone) for 24 hours. Triplicate wells of cells were treated for 72 hrs at 37° C. (5% CO2) with 50 ul of HGS agonistic Trail receptor antibody, ETR1 (40 ng/ml) in combination with 50 ul of diluted compound (0.01 to 10000 nM). Metabolic viability of remaining cells was assessed by MTT assay.
(§1) The percentage viability of compound-treated cells was expressed as a fraction of the absorbance/luminescence signal obtained from non-treated cells. EC50 values (corresponding to 50% cell survival in the presence of compound as compared to untreated controls) were calculated from MTT survival curves (HCT116 and SKOV3) using BioAssay software (CambridgeSoft) and from Cell Titer-Glo survival curves (synovioycte and Jurkat cells) using GraphPad Prism (Graph Pad Software Inc.). In the below chart, EC50 values are summarized as follows: a=EC50 of less than 10 nM; b=EC50 of 10-100 nM; and c=EC50 of greater than 100 nM.

[2] = system: Ovarian adenocarcinoma SKOV3 cells; test: SKOV3 cell viability assay (MTT); type: cell-based; conditions: Homo sapiens, SK-OV-3, 72 hours
Description: Ovarian adenocarcinoma SKOV3 cells (ATCC# HTB-77) were cultured as monolayers in McCoy's 5a medium (HyClone) supplemented with 2.2 g/L sodium bicarbonate (Gibco), 10% FBS (HyClone) and 1% penicillin/streptomycin (HyClone). Cells were seeded in tissue culture-treated 96 well plates at 5000 cells/well in 150 ul of media. After 24 hours, triplicate wells of cells were treated with various concentrations of compound (0.01 to 10000 nM) diluted in 50 ul of culture media. Cells were incubated at 37° C. (5% CO2) in the presence of compound for 72 hours. Metabolic viability of remaining cells was assessed by MTT (thiazolyl blue tetrazolium bromide, Sigma) assay. 20 ul of MTT reagent (10 mg/ml) was added per well and plates were incubated for 4 hours at 37° C. (5% CO2). The supernatant was then removed from the plate. The converted MTT product was solubilized with 100 uL of isopropanol and the absorbance was read at 570 nm using a Tecan spectrophotometer.
as §1

SMILES	pEC50 [1]	pEC50 [2]
CN[C@@H](C)C(=O)N[C@H](C(=O)N1C[C@@H](NC(=O)C2CCC(C(=O)N[C@H]3C[C@@H](C(=O)N[C@@H]4CCOc5ccc(F)cc54)N(C(=O)[C@@H](NC(=O)[C@H](C)NC)C4CCCCC4)C3)CC2)C[C@H]1C(=O)N[C@@H]1CCOc2ccc(F)cc21)C1CCCCC1 (stereo partly drawn) [Compound 24]	> 8.00	7.00 to 8.00
CN[C@@H](C)C(=O)N[C@H](C(=O)N1C[C@@H](NC(=O)c2ccc(C(=O)N[C@H]3C[C@@H](C(=O)N[C@H](CCc4ccccc4)c4ccccc4)N(C(=O)[C@@H](NC(=O)[C@H](C)NC)C4CCCCC4)C3)cc2)C[C@H]1C(=O)N[C@H](CCc1ccccc1)c1ccccc1)C1CCCCC1 [Compound 16]	7.00 to 8.00	7.00 to 8.00
CN[C@@H](C)C(=O)N[C@H](C(=O)N1C[C@@H](NC(=O)c2ccc3cc(C(=O)N[C@H]4C[C@@H](C(=O)NC5c6ccccc6-c6ccccc65)N(C(=O)[C@@H](NC(=O)[C@H](C)NC)C5CCCCC5)C4)ccc3c2)C[C@H]1C(=O)NC1c2ccccc2-c2ccccc21)C1CCCCC1 [Compound 20]	> 8.00	> 8.00
CN[C@@H](C)C(=O)N[C@H](C(=O)N1C[C@@H](NC(=O)c2ccc3cc(C(=O)N[C@H]4C[C@@H](C(=O)NC(c5ccccc5)c5ccccc5)N(C(=O)[C@@H](NC(=O)[C@H](C)NC)C5CCCCC5)C4)ccc3c2)C[C@H]1C(=O)NC(c1ccccc1)c1ccccc1)C1CCCCC1 [Compound 23]	> 8.00	> 8.00
CN[C@@H](C)C(=O)N[C@H](C(=O)N1C[C@@H](NC(=O)c2ccc(C(=O)N[C@H]3C[C@@H](C(=O)N4CCCC[C@@H]4c4ccccc4)N(C(=O)[C@@H](NC(=O)[C@H](C)NC)C4CCCCC4)C3)cc2)CC1C(=O)N1CCCC[C@@H]1c1ccccc1)C1CCCCC1 (stereo partly drawn) [Compound 28]	7.00 to 8.00	7.00 to 8.00
CN[C@@H](C)C(=O)N[C@H](C(=O)N1C[C@@H](NC(=O)c2ccc(-c3ccc(C(=O)N[C@H]4C[C@@H](C(=O)NC5c6ccccc6-c6ccccc65)N(C(=O)[C@@H](NC(=O)[C@H](C)NC)C5CCCCC5)C4)cc3)cc2)C[C@H]1C(=O)NC1c2ccccc2-c2ccccc21)C1CCCCC1 [Compound 12]	> 8.00	7.00 to 8.00
CN[C@@H](C)C(=O)N[C@H](C(=O)N1C[C@@H](NC(=O)c2ccc(-c3ccc(C(=O)N[C@H]4C[C@@H](C(=O)NC(c5ccccc5)c5ccccc5)N(C(=O)[C@@H](NC(=O)[C@H](C)NC)C5CCCCC5)C4)cc3)cc2)C[C@H]1C(=O)NC(c1ccccc1)c1ccccc1)C1CCCCC1 [Compound 11]	> 8.00	7.00 to 8.00
CN[C@@H](C)C(=O)N[C@H](C(=O)N1C[C@@H](NC(=O)c2ccc(-c3ccc(C(=O)N[C@H]4C[C@@H](C(=O)N[C@@H]5CCc6ccccc65)N(C(=O)[C@@H](NC(=O)[C@H](C)NC)C5CCCCC5)C4)cc3)cc2)C[C@H]1C(=O)N[C@@H]1CCc2ccccc21)C1CCCCC1 [Compound 10]	> 8.00	> 8.00
CN[C@@H](C)C(=O)N[C@H](C(=O)N1C[C@@H](NC(=O)C2CCC(C(=O)N[C@H]3C[C@@H](C(=O)N[C@H](COCc4ccccc4)c4ccccc4)N(C(=O)[C@@H](NC(=O)[C@H](C)NC)C4CCCCC4)C3)CC2)C[C@H]1C(=O)N[C@H](COCc1ccccc1)c1ccccc1)C1CCCCC1 (stereo partly drawn) [Compound 17]	> 8.00	7.00 to 8.00
CN[C@@H](C)C(=O)N[C@H](C(=O)N1C[C@@H](NC(=O)c2ccc(C(=O)N[C@H]3C[C@@H](C(=O)N[C@H](CCCc4ccccc4)c4ccccc4)N(C(=O)[C@@H](NC(=O)[C@H](C)NC)C4CCCCC4)C3)cc2)C[C@H]1C(=O)N[C@H](CCCc1ccccc1)c1ccccc1)C1CCCCC1 [Compound 8]	7.00 to 8.00	< 7.00
CN[C@@H](C)C(=O)N[C@H](C(=O)N1C[C@@H](NC(=O)c2ccc(C(=O)N[C@H]3C[C@@H](C(=O)NC4c5ccccc5-c5ccccc54)N(C(=O)[C@@H](NC(=O)[C@H](C)NC)C4CCCCC4)C3)cc2)C[C@H]1C(=O)NC1c2ccccc2-c2ccccc21)C1CCCCC1 [Compound 15]	> 8.00	> 8.00
CN[C@@H](C)C(=O)N[C@H](C(=O)N1C[C@@H](NC(=O)c2ccc(C(=O)N[C@H]3C[C@@H](C(=O)N[C@H](C)c4ccc(F)cc4)N(C(=O)[C@@H](NC(=O)[C@H](C)NC)C4CCCCC4)C3)cc2)CC1C(=O)N[C@H](C)c1ccc(F)cc1)C1CCCCC1 (stereo partly drawn) [Compound 26]	> 8.00	> 8.00
CN[C@@H](C)C(=O)N[C@H](C(=O)N1C[C@@H](NC(=O)c2ccc(C(=O)N[C@H]3C[C@@H](C(=O)N[C@H](C)c4ccccc4)N(C(=O)[C@@H](NC(=O)[C@H](C)NC)C4CCCCC4)C3)cc2)C[C@H]1C(=O)N[C@H](C)c1ccccc1)C1CCCCC1 [Compound 13]	> 8.00	> 8.00
CN[C@@H](C)C(=O)N[C@H](C(=O)N1C[C@@H](NC(=O)c2ccc(C(=O)N[C@H]3C[C@@H](C(=O)NCc4ccccc4)N(C(=O)[C@@H](NC(=O)[C@H](C)NC)C4CCCCC4)C3)cc2)C[C@H]1C(=O)NCc1ccccc1)C1CCCCC1 [Compound 29]	> 8.00	> 8.00
CN[C@@H](C)C(=O)N[C@H](C(=O)N1C[C@@H](NC(=O)c2ccc(C(=O)N[C@H]3C[C@@H](C(=O)N[C@@H]4CCOc5ccc(F)cc54)N(C(=O)[C@@H](NC(=O)[C@H](C)NC)C4CCCCC4)C3)cc2)CC1C(=O)N[C@@H]1CCOc2ccc(F)cc21)C1CCCCC1 (stereo partly drawn) [Compound 25]	> 8.00	7.00 to 8.00
CN[C@@H](C)C(=O)N[C@H](C(=O)N1C[C@@H](NC(=O)c2ccc(C(=O)N[C@H]3C[C@@H](C(=O)N[C@@H]4CCOc5ccccc54)N(C(=O)[C@@H](NC(=O)[C@H](C)NC)C4CCCCC4)C3)cc2)C[C@H]1C(=O)N[C@@H]1CCOc2ccccc21)C1CCCCC1 [Compound 31]	> 8.00	> 8.00
CN[C@@H](C)C(=O)N[C@H](C(=O)N1C[C@@H](NC(=O)c2ccc(C(=O)N[C@H]3C[C@@H](C(=O)N[C@@H]4CCc5ccccc54)N(C(=O)[C@@H](NC(=O)[C@H](C)NC)C4CCCCC4)C3)cc2)C[C@H]1C(=O)N[C@@H]1CCc2ccccc21)C1CCCCC1 [Compound 6]	> 8.00	> 8.00
CN[C@@H](C)C(=O)N[C@H](C(=O)N1C[C@@H](NC(=O)c2ccc3cc(C(=O)N[C@H]4C[C@@H](C(=O)N[C@H](COCc5ccccc5)c5ccccc5)N(C(=O)[C@@H](NC(=O)[C@H](C)NC)C5CCCCC5)C4)ccc3c2)C[C@H]1C(=O)N[C@H](COCc1ccccc1)c1ccccc1)C1CCCCC1 [Compound 21]	> 8.00	7.00 to 8.00
CN[C@@H](C)C(=O)N[C@H](C(=O)N1C[C@@H](NC(=O)c2ccc3cc(C(=O)N[C@H]4C[C@@H](C(=O)N[C@@H]5CCc6ccccc65)N(C(=O)[C@@H](NC(=O)[C@H](C)NC)C5CCCCC5)C4)ccc3c2)C[C@H]1C(=O)N[C@@H]1CCc2ccccc21)C1CCCCC1 [Compound 22]	> 8.00	> 8.00
CN[C@@H](C)C(=O)N[C@H](C(=O)N1C[C@@H](NC(=O)c2ccc(C(=O)N[C@H]3C[C@@H](C(=O)N[C@H](COCc4ccccc4)c4ccccc4)N(C(=O)[C@@H](NC(=O)[C@H](C)NC)C4CCCCC4)C3)cc2)C[C@H]1C(=O)N[C@H](COCc1ccccc1)c1ccccc1)C1CCCCC1 [Compound 18]	> 8.00	7.00 to 8.00
CN[C@@H](C)C(=O)N[C@H](C(=O)N1C[C@@H](NC(=O)c2ccc3cc(C(=O)N[C@H]4C[C@@H](C(=O)N[C@@H]5CCCc6ccccc65)N(C(=O)[C@@H](NC(=O)[C@H](C)NC)C5CCCCC5)C4)ccc3c2)C[C@H]1C(=O)N[C@@H]1CCCc2ccccc21)C1CCCCC1 [Compound 19]	> 8.00	> 8.00
CN[C@@H](C)C(=O)N[C@H](C(=O)N1C[C@@H](NC(=O)C2CCC(C(=O)N[C@H]3C[C@@H](C(=O)NC4c5ccccc5-c5ccccc54)N(C(=O)[C@@H](NC(=O)[C@H](C)NC)C4CCCCC4)C3)CC2)C[C@H]1C(=O)NC1c2ccccc2-c2ccccc21)C1CCCCC1 (stereo partly drawn) [Compound 2]	> 8.00	7.00 to 8.00
CN[C@@H](C)C(=O)N[C@H](C(=O)N1C[C@@H](NC(=O)c2ccc(C(=O)N[C@H]3C[C@@H](C(=O)N[C@H](Cc4ccccc4)c4ccccc4)N(C(=O)[C@@H](NC(=O)[C@H](C)NC)C4CCCCC4)C3)cc2)C[C@H]1C(=O)N[C@H](Cc1ccccc1)c1ccccc1)C1CCCCC1 [Compound 14]	> 8.00	7.00 to 8.00
CN[C@@H](C)C(=O)N[C@H](C(=O)N1C[C@@H](NC(=O)C2CCC(C(=O)N[C@H]3C[C@@H](C(=O)N[C@@H]4CCOc5ccccc54)N(C(=O)[C@@H](NC(=O)[C@H](C)NC)C4CCCCC4)C3)CC2)C[C@H]1C(=O)N[C@@H]1CCOc2ccccc21)C1CCCCC1 (stereo partly drawn) [Compound 32]	> 8.00	> 8.00
